Patent publication US20040142961A1, “Utilization of substituted imidazo[1,2-a]-pyridine compounds in pharmaceutical formulations” (priority 2001, published 2004)

molecular target: T1, nitric oxide synthase (Rattus norvegicus, UniProt P29476); assay: HTS NO synthase assay; assay type: biochemical; settings: 10 μM test compound; enzyme from rat cerebellum; [3H]arginine substrate; read-out: Inhibition of nitric oxide synthase (10 μM) in per cent
T1 construct: the supernatant was then decanted and frozen in portions; from tissue; host or cells: rat cerebellum, homogenate supernatant after 20,000 g
Protocol: This assay allows the determination of the percentage inhibition of NO synthase by a compound of formula I employed according to the invention by measuring the NO synthase activity under the action of the compound. In this procedure, NO synthase is mixed together with radioactively labelled arginine and the particular compound of formula I under suitable conditions. After interruption of the NO formation reaction at a given point in time, the amount of unreacted arginine is determined directly or indirectly. Comparison of this amount with the amount of arginine remaining from the mixture of NO synthase and arginine free of the test compound of formula I and under otherwise identical conditions gives the percentage inhibition of NO synthase by the test compound. This assay can be carried out as follows:
(a) incubation of NO synthase with labelled arginine as the substrate in a reaction vessel,
(b) separation of the labelled arginine from labelled citrulline formed as the product of the enzymatic reaction at a point in time at which the concentration of citrulline is increasing, and
(c) measurement of the amount of arginine separated in each case.
The separation is carried out through a filter plate membrane.
In this HTS NO synthase assay, radioactive arginine is used as the substrate. The assay volume can be chosen in the range between 25 μl and 250 μl, depending on the nature of the microtiter plate (MTP). Cofactors and coenzymes are added, depending on the enzyme source used. The incubation of the batches in this microtiter plate (assay MTP) according to step (a) is carried out at room temperature for between 5 and 60 minutes, depending on the enzyme activity (units) used. At the end of the incubation (step (a)), the plate is placed in a cell harvester equipped with an MTP which has a cation exchanger membrane as the filter base (filter MTP). All the batches of the assay MTP are transferred into this filter MTP and filtered with suction over a cation exchanger filter plate, i.e., a filter paper loaded with phosphate groups. The filter MTP is then washed with buffer or water. Using this procedure, the arginine substrate which remains is bound to the cation exchanger, while the radioactive citrulline formed enzymatically is washed out quantitatively. After drying of the filter MTP and addition of scintillation liquid, the bound arginine can be counted on a scintillation counter. An NO synthase reaction which has not been inhibited is reflected in a low radioactivity. An inhibited enzyme reaction means that the radioactive arginine has not been reacted. That is to say, a high radioactivity is found on the filter. […]
The plate was then dried for 1 hour at 60° C. in a drying cabinet. […] After a waiting time of 1 hour, the plate was measured on a β-counter.

Row | SMILES | inhibition at 10 µM
1 | COc1ccc(-c2cn3ccc(C)cc3n2)cc1 [Example 1, 2-(4-Methoxy-phenyl)-7-methyl-imidazo[1,2-a]pyridine] | 39%
2 | Cc1ccn2cc(C)nc2c1 [Example 2, 2,7-Dimethyl-imidazo[1,2-a]pyridine] | 68%
3 | Cc1ccn2ccnc2c1 [Example 3, 7-Methyl-imidazo[1,2-a]pyridine] | 53%
4 | Cc1ccn2cc(C(C)(C)C)nc2c1 [Example 4, 2-tert-Butyl-7-methyl-imidazo[1,2-a]pyridine] | 89%
